Laboratory results: patent US10391101B2, “Derivatives of 7-fluoro-8-chloro-5H-dibenzo [B,E,] [1,4] diazepine and use thereof” (VALENTEK LLC, priority 2014, dated 2019)

How the values were obtained:
[1] = target: H4 receptor (Homo sapiens, UniProt Q9H3N8); experiment: H4 histamine receptor functional experiment, agonism set-up (cell conductibility); assay type: cell-based
Protocol: (§1) The functional activity of compounds on the H4 receptor was determined according to the change in the cell conductibility induced by redistribution of intracellular calcium. The activity for H1 receptor was determined according to the fluorescence of Fluo-4 NW indicator introduced into cells induced by the change in Ca2+ ion concentration in the cytosol.
(§2) Functional experiments were performed in the set-up of agonism and antagonism. In the set-up of agonism the test substance was added directly to the cells expressing the receptor and was determined as the dependence of the response intensity on the substance concentration. Concentration at which the half-peak response (EC50) could be reached served as a measure of activity of agonists.
(§3) In the set-up of antagonism, the ability of test substances to block the action of agonists was assessed. For this purpose, cells were incubated with the test substances, then the reference agonists were added in the system and the functional response was determined.

[2] = target: T1, M4 muscarinic receptor (Homo sapiens, UniProt P08173); experiment: cell-based
T1 sequence (P08173 1-479): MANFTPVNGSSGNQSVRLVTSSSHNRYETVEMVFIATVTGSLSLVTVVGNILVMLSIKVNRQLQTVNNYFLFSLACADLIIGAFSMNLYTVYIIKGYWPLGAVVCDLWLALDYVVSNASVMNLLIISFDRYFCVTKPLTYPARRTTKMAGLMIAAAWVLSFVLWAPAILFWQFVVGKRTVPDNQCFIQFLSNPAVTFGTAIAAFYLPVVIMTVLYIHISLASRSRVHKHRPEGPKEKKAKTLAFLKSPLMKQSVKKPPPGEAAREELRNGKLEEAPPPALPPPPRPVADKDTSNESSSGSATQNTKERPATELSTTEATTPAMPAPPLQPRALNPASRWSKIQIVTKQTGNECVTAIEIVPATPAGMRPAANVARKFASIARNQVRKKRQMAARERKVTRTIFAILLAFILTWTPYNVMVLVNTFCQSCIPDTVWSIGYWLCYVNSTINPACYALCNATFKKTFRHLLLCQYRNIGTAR
Protocol: as §2, §3
The curves of dependence of functional response on the concentration of compounds for the receptor were made; the level of second messenger—cAMP determined according to the fluorescence after the lysis of cell expressing the receptor was taken as a criterion.

[3] = target: H1 receptor (Homo sapiens, UniProt P35367); experiment: H1 histamine receptor functional experiment, antagonism set-up (Fluo-4 NW Ca2+ fluorescence); assay type: cell-based
Protocol: as §1, §2, §3

[4] = target: T2, M1 receptors (Homo sapiens, UniProt P11229); experiment: M1 receptor activation functional study (Fluo-4 NW Ca2+ fluorescence); assay type: cell-based; settings: concentration-response curves, FIG. 2
T2 sequence (P11229 1-460): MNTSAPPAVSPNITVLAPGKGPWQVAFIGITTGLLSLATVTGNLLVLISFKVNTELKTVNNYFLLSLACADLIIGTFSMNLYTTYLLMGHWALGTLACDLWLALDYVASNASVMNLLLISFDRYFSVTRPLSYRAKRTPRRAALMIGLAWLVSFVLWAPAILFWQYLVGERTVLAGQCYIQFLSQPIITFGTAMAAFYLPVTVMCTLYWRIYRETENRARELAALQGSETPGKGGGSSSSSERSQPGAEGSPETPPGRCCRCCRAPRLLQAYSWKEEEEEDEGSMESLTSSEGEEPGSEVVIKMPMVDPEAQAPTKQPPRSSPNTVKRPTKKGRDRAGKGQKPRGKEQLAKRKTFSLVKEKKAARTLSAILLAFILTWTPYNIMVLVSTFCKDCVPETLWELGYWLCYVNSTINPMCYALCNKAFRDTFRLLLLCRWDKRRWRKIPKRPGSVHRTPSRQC
Protocol: The activity was determined according to the fluorescence of Fluo-4 NW indicator introduced into cells induced by the change in Ca2+ ion concentration in the cytosol.

[5] = target: T3, D4 dopamine receptors (Homo sapiens, UniProt P21917); experiment: D4 dopamine receptor antagonism, Kb from IC50 (cAMP level); assay type: cell-based
T3 sequence (P21917 1-419): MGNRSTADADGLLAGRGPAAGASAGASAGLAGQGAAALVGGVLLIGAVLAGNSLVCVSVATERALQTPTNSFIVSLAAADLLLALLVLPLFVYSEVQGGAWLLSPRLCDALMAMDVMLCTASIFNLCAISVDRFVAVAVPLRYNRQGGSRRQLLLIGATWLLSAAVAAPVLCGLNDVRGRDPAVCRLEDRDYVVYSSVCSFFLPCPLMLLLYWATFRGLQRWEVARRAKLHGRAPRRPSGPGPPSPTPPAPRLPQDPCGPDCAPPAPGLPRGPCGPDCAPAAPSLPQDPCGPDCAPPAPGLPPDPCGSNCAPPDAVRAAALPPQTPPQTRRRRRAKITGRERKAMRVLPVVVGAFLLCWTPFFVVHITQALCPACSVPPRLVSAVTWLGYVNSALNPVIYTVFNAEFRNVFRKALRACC
Protocol: (§4) The response on cells expressing D2 receptors was determined according to the change in the cell conductibility induced by redistribution of intracellular calcium. For D4 receptor the level of second messenger—cAMP was taken as the criterion.

[6] = Sedation study, total distance traveled; settings: CF-1 mice, oral 1, 5 and 10 mg/kg
[7] = tested on: family of adrenergic receptors; experiment: Panel of G-protein-coupled receptors, adrenergic receptors; settings: GPCR panel
From the text: In conjunction with the results of preliminary toxicological studies, the data indicates a reduction in the risk of autonomic dysfunctions, such as tachysystole, orthostatism, accommodation disorder, dysfunction of gastrointestinal tract and urination, weight gain, lack of coordination of muscle movements.

[8] = Sub-chronic toxicity, morphological parameters of blood (neutrophil kinetics); assay type: in vivo; settings: rats, intragastric 5 mg/kg daily for 28 days
From the text: The positive effect of the introduction of fluorine has been observed in pre-clinical studies of sub-chronic toxicity. […]. Increase in the number of neutrophils has been observed among rats after administration of aminoglutethimide, which also involves a high risk of agranulocytosis (Ng, W. et. al., Chem Res Toxicol, 2013, 26, 1272-81). Thus changes in the kinetics of neutrophils after intake of the medication can serve as a biomarker to predict the risk of agranulocytosis.
The neutrophil kinetics has been studied within comparative tests of sub-chronic toxicity. Studies have been conducted using rats upon intragastric administration of the substance at a dose of 5 mg/kg. The test substances were administered daily for 28 days. Each experimental group was composed of 10 animals of each sex.

[9] = Prepulse inhibition of acoustic startle response, ketamine-induced deficit; settings: mice, ketamine 50 mg/kg i.p.
[10] = target: D2 dopamine receptors (Homo sapiens, UniProt P14416); experiment: cell-based; settings: determined by IC50 values in the set-up of antagonism
Protocol: as §4

[11] = Metabolism and distribution of fluoroclozapine in tissues; settings: rats, single oral fluoroclozapine 10 mg/kg
[12] = 5-oxytriptophan hyperkinesia (head twitches); assay type: in vivo; settings: mice, intragastric 1.0-10.0 mg/kg, 5-oxytriptophan 300 mg/kg i.p.
Protocol: It is known that the precursor of serotonin (5-oxytriptophan, 5-OT) causes a specific hyperkinesia in mice in the form of head-twitching with average duration of 30-60 minutes, which is explained by the activation of serotonergic system of the CNS. […] Each experimental group included 10 male mice weighing 20-22 g. The test substances were administered intragastrically at 1.0, 2.5, 5.0 and 10.0 mg/kg 30 minutes before the intraperitoneal administration of 5-oxytriptophan at a dose of 300 mg/kg. We counted the number of head twitches per 1 minute at intervals of 10 minutes during 60 minutes.

Sequence of H1 receptor (P35367 whole entry): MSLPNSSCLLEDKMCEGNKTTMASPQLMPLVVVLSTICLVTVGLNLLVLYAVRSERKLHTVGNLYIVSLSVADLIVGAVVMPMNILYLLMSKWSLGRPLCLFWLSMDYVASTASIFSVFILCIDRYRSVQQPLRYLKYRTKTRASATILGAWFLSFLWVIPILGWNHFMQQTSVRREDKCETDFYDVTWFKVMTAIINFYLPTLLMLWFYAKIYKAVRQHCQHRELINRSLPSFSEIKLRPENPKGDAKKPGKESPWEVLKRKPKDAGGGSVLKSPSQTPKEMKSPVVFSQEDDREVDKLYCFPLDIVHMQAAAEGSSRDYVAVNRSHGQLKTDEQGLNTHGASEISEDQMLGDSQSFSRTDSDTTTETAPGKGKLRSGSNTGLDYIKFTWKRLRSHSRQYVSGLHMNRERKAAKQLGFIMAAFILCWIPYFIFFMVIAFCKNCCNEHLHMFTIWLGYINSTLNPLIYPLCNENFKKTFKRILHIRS
Sequence of H4 receptor (Q9H3N8 whole entry): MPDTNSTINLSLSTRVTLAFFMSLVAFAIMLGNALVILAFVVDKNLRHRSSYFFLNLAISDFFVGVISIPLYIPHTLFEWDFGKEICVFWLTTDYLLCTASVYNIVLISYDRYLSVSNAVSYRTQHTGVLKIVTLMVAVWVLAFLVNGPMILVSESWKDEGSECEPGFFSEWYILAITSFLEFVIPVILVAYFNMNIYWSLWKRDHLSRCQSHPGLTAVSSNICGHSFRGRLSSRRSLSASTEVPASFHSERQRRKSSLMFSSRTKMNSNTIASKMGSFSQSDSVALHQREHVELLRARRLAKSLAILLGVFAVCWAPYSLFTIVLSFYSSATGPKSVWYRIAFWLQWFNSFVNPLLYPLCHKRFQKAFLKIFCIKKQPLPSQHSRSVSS
Sequence of D2 dopamine receptors (P14416 whole entry): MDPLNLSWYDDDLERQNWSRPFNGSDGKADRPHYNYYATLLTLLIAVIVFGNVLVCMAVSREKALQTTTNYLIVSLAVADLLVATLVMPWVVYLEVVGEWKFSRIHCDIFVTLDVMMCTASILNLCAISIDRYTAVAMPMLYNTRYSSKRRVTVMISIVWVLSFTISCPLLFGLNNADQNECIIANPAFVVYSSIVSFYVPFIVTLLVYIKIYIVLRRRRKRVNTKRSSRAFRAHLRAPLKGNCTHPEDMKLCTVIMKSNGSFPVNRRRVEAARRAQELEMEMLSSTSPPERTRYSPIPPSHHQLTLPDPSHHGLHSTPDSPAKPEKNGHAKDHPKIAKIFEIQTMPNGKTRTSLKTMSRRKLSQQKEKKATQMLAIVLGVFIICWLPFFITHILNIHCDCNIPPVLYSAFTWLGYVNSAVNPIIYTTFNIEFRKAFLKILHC

## CN1CCN(C2=Nc3cc(Cl)c(F)cc3Nc3ccccc32)CC1 [Fluoroclozapine, 11-(4-methylpiperazine-1-yl)-7-fluoro-8-chloro-5H-dibenzo[b,e][1,4]diazepine]
[1]
  EC50: 170 nM
[2]; M4, agonism set-up
  EC50: 16000 nM
[2]; M4, antagonism set-up
  IC50: 4800 nM
[3]
  IC50: 18 nM
[4]
  Functional response on M1 receptor (agonism): virtually no effect on M1 receptors
[5]; determined by IC50 values in the set-up of antagonism
  Kb: 50 nM
[5]; ratio of the applicant's Kb values
  Therapeutic window (Kb, D2/Kb, D4): 5.2
[6]
  Sedation: total distance traveled by animals: significantly lower
[7]
  Activity in relation to adrenergic receptors: relatively weak activity
[8]
  Basophils: 1.0 ± 0.3%
  ESR: 4.2 ± 0.4 mm/h
  Eosinophils: 0.8 ± 0.4%
  Hemoglobin: 155.4 ± 2.1 g/L
  Ht: 43.2 ± 0.7%
  Lymphocytes: 67.8 ± 2.4%
  MCH: 18.4 ± 0.1 pg
  MCHC: 359.4 ± 1.9 g/L
  MCV: 51.3 ± 0.5 fL
  Metamyelocytes: 0.0 ± 0.0%
  Monocytes: 6.4 ± 0.5%
  Myelocytes: 0.0 ± 0.0%
  Number of circulating neutrophils in peripheral blood versus control group: did not differ so much different from that of the control group
  PLT count: 666.4 ± 26.0 10^9/l
  Plasma cells: 0.0 ± 0.0%
  RBC count: 8.43 ± 0.07 10^12/l
  Rt: 77.6 ± 4.6 10^9/l
  Segmented neutrophils: 20.8 ± 1.5%
  Stab neutrophiles: 3.2 ± 0.4%
  WBC count: 11.2 ± 0.8 10^9/l
[9]; 10 mg/kg
  Restoration of PPI at a dose of 10 mg/kg: comparable to clozapine activity at a dose of 5 mg/kg
[9]; doses of 5 and 10 mg/kg
  Restoration of the PPI deficit caused by ketamine: statistically significant dose-dependent restoration of the PPI deficit
[10]
  Kb: 260 nM
[11]
  Concentrations of parent and metabolite in the brain: consistent
  Metabolism: is metabolized to desmethylfluoroclozapine in rats
[12]
  Inhibition of twitches induced by 5-OT: most evident inhibition of twitches
